The values that follow come from US20230219956A1 (BETTA PHARMACEUTICALS CO.,LTD, priority 2019, published 2023).

Series [1] relates to CALU-1 cells. Nature of the series: Cell proliferation assay, CALU-1 cells (Cell-titer Glo). It is filed as cell-based. The following applies: Homo sapiens, 120 h incubation. The method, then: The CALU-1 cells were spread on a 96-well ultra-low adsorption plate with 1000 cells and 190 μL/well. After incubating overnight, compound solutions of gradient concentration was prepared, and added 10 μL of DMSO solution of the test compound of each concentration to the cells of each well. The final concentration of the compound is 30000, 10000, 3333.3, 1111.1, 370.4, 123.5, 41.2, 13.7, 4.6, 0 nM (the final concentration of DMSO is 0.25%). Incubated for 120 h at 37° C. and 5% CO2. 60 μL of Cell-titer Glo working solution was added to each well, shaked and mixed, and incubated at room temperature for 10 minutes. The multi-functional microplate reader read the luminescence value, and converted the luminescence value reading into inhibition percentage.
Inhibition percentage=(maximum value−reading)/(maximum value−minimum value)*100.
The “maximum value” was the DMSO control, the “minimum value” indicates the cell-free control group.
Graphpad Prism software was used to perform curve fitting and obtain IC50 value.
The compounds of the examples have good inhibition on CALU-1 cells, and their activity is better than that of ARS-1620. Refer to Table 2 for the IC50 data of some compounds in the examples inhibiting CALU-1 cells.

Series [2] can be described thus: Permeability assay, Caco-2 monolayer cell model. The series is classed as in vitro ADME. The following applies: human, Caco-2, compound 5 μM, Verapamil 0 μM; for efflux ratio at 120 min, 5 μM: read-out: RE (Efflux Ratio). The protocol:
The Caco-2 monolayer cell model was used to determine the bidirectional permeability and efflux rate of the example compounds and the comparative compounds. In the experiment, 50 μL of 6.86×10^5 cells/mL Caco-2 cells (passage 45) were seeded into 96-well cell culture plates, and cultured continuously for 14-18 days for transport experiments. The corresponding compound was administered bidirectionally with or without verapamil (P glycoprotein (P-gp) inhibitor), at a concentration of 5 μM. At 37° C., after incubating with shaking at 150 rpm for 120 minutes, the top and basal samples were collected, and the content of each compound in the samples was determined by liquid chromatography tandem mass spectrometry (LC/MS/MS).
Refer to the Table 4 for permeability data of some compounds in the examples.

For series [3], the system named is MIA-PACA-2 cells. Nature of the series: Cell proliferation assay, MIA-PACA-2 cells (Cell-titer Glo). It is filed as cell-based. The following applies: Homo sapiens, 96 h incubation. Summed up: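 MIA-PACA-2 cells, 600 per well in ultra-low-attachment plates, exposed 96 h at 37 °C to compound at 0.025–10000 nM final (0.25% DMSO). Viability by CellTiter-Glo luminescence; inhibition normalised to DMSO and cell-free controls, IC50 from curve fit.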

In series [4] the test system is H358 cells. The experiment in a line: Cell proliferation assay, H358 cells (Cell-titer Glo). The series is classed as cell-based. The following applies: Homo sapiens, NCI-H358, 96 h incubation. Put shortly: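 H358 cells, 2000 per well in ultra-low-attachment plates, treated after overnight culture with compound at 10000 to 1.5 nM plus 0 (0.25% DMSO final) for 96 h at 37 °C, 5% CO2. Cell-titer Glo luminescence, normalised to DMSO and cell-free controls; IC50 from curve fit.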

SMILES strings stand for the structures.

In general, IC50 refers to the concentration at which inhibition is half-maximal. Broadly, the Papp A→B is the apparent permeability from the apical to the basolateral side of a cell layer. By Papp B→A is commonly meant how fast a substance crosses the layer from the basolateral side.

As to `C=CC(=O)N1CC2(CCN(c3nc(C4CCOCC4)nc4c(OCC(F)(F)F)c(-c5c(C)ccc6[nH]ncc56)c(C=C)cc34)CC2)C1` [Compound 6, 1-(7-(7-(5-methyl-1H-indazol-4-yl)-2-(tetrahydro-2H-pyran-4-yl)-8-(2,2,2-trifluoroethoxy)-6-vinylquinazolin-4-yl)-2,7-diazaspiro[3.5]nonan-2-yl)prop-2-en-1-one], the IC50 in series [1] amounted to 45.7 nM.
`C=CC(=O)N1CC2(CCN(c3nc(C4CCN(C(C)=O)CC4)nc4c(OCC(F)(F)F)c(-c5c(C)ccc6[nH]ncc56)c(C=C)cc34)CC2)C1` [Example 14, 1-(7-(2-(1-acetylpiperidin-4-yl)-7-(5-methyl-1H-indazol-4-yl)-8-(2,2,2-trifluoroethoxy)-6-vinylquinazolin-4-yl)-2,7-diazaspiro[3.5]nonan-2-yl)prop-2-en-1-one]: in series [2], the Papp A→B at 120 min, 5 μM stood at 1.33 ×10⁻⁶ cm/s; the basolateral-to-apical permeability (Papp B→A) at 120 min, 5 μM came to 5.82 ×10⁻⁶ cm/s; the efflux ratio at 120 min, 5 μM came to 4.36. Half-maximal inhibition in series [3] (IC50) was put at 40.6 nM. Moreover, the midpoint of inhibition in series [4], the IC50, lay at 6.4 nM.
For `C=CC(=O)N1CC2(CCN(c3nc(C4CCN(C)CC4)nc4c(OCC(F)(F)F)c(-c5c(C)ccc6[nH]ncc56)c(CC)cc34)CC2)C1` [Compound 4, 1-(7-(6-ethyl-7-(5-methyl-1H-indazol-4-yl)-2-(1-methylpiperidin-4-yl)-8-(2,2,2-trifluoroethoxy)quinazolin-4-yl)-2,7-diazaspiro[3.5]nonan-2-yl)prop-2-en-1-one], in series [1], half-maximal inhibition (IC50) was put at 2.9 nM. Moreover, in series [2], the Papp A→B at 120 min, 5 μM is 0.21 ×10⁻⁶ cm/s; the Papp B→A at 120 min, 5 μM came out at 9.64 ×10⁻⁶ cm/s; the efflux ratio at 120 min, 5 μM is 46.5.
Take `C=CC(=O)N1CC2(CCN(c3nc(C4CCN(C5CCOCC5)CC4)nc4c(OCC(F)(F)F)c(-c5c(C)ccc6[nH]ncc56)c(C=C)cc34)CC2)C1` [Example 58, 1-(7-(7-(5-methyl-1H-indazole-4-yl)-2-(1-(tetrahydro-2H-pyran-4-yl)piperidin-4-yl)-8-(2,2,2-trifluoroethoxy)-6-vinylquinazolin-4-yl)-2,7-diazspiro [3.5]nonan-2-yl) propyl-2-en-1-one]: in series [2], the Papp A→B at 120 min, 5 μM was 0.34 ×10⁻⁶ cm/s; the Papp B→A at 120 min, 5 μM stood at 10.3 ×10⁻⁶ cm/s; the efflux ratio at 120 min, 5 μM worked out at 30.6. The IC50 in series [3] was 2.6 nM. This compound yielded an IC50 in series [4] of 4.4 nM.
For the compound `C=CC(=O)N1CC2(CCN(c3nc(OC4CCN(C5CCOCC5)CC4)nc4c(OCC(F)(F)F)c(-c5c(C)ccc6[nH]ncc56)c(C=C)cc34)CC2)C1` [Compound D1, reference compound], in series [2], the Papp A→B at 120 min, 5 μM was 0.06 ×10⁻⁶ cm/s; the Papp B→A at 120 min, 5 μM is 6.75 ×10⁻⁶ cm/s; the efflux ratio at 120 min, 5 μM came out at 113.
The compound `C=CC(=O)N1CC2(CCN(c3nc(C4CCN(C)CC4)nc4c(F)c(-c5c(C)ccc6[nH]ncc56)c(C=C)cc34)CC2)C1` [Compound 5, 1-(7-(8-fluoro-7-(5-methyl-1H-indazol-4-yl)-2-(1-methylpiperidin-4-yl)-synthesis of 6-vinylquinazolin-4-yl)-2,7-diazaspiro[3.5]nonan-2-yl)prop-2-en-1-one] showed an IC50 in series [1] of 103 nM.
For the compound `C=CC(=O)N1CCN(c2ncnc3c(F)c(-c4c(O)cccc4F)c(Cl)cc23)CC1` [ARS-1620, reference compound], the IC50 in series [1] came to 245 nM; in series [3], 284 nM.
Compound `C=CC(=O)N1CC2(CCN(c3nc(C4CCN(C)C4)nc4c(OCC(F)(F)F)c(-c5c(C)ccc6[nH]ncc56)c(C=C)cc34)CC2)C1` (centres unmarked) [Compound 8] yielded an IC50 in series [1] of 4.6 nM.
Take `C=CC(=O)N1CC2(CCN(c3nc(C4CCN(CC(C)(C)O)CC4)nc4c(OCC(F)(F)F)c(-c5c(C)ccc6[nH]ncc56)c(C=C)cc34)CC2)C1` [Example 60]: the IC50 in series [3] was 4 nM; in series [4], 4.1 nM.
Regarding `C=CC(=O)N1CCC2(CC1)CN(c1nc(C3CCN(C)CC3)nc3c(OCC(F)(F)F)c(-c4c(C)ccc5[nH]ncc45)c(C=C)cc13)C2` [Example 51, 1-(2-(7-(5-methyl-1H-indazol-4-yl)-2-(1-methylpiperidin-4-yl)-8-(2,2,2-trifluoroethoxy)-6-vinylquinazolin-4-yl)-2,7-diazspiro [3.5]nonan-2-yl) propyl-2-en-1-one], the IC50 stood at 188 nM in series [3] and 462 nM in series [4].
For `C=CC(=O)N1CC2(CCN(c3nc(C4CCN(C5CCOC5)CC4)nc4c(OCC(F)(F)F)c(-c5c(C)ccc6[nH]ncc56)c(C=C)cc34)CC2)C1` (centres unmarked) [Example 79, 1-(7-(7-(5-methyl-1H-indazol-4-yl)-2-(1-(tetrahydrofuran-3-yl)piperidin-4-yl)-8-(2,2,2-trifluoroethoxy)-6-vinylquinazolin-4-yl)-2,7-diazspiro [3.5]nonan-2-yl) propyl-2-en-1-one], in that order: 3.5 nM and 2.7 nM.
On to `C=CC(=O)N1CC2(CCN(c3nc(C4CCN(C)CC4)nc4c(OCC5CC5)c(-c5c(C)ccc6[nH]ncc56)c(CC)cc34)CC2)C1` [Example 31], for which the IC50 in series [3] was determined as 91.9 nM; in series [4], 20.4 nM.
`C=CC(=O)N1CC2(CCN(c3nc(C4CCN(C)CC4)nc4c(OCC(F)(F)F)c(-c5c(C)ccc6[nH]ncc56)c(C=C)cc34)CC2)C1` [Compound 1, 1-(7-(7-(5-methyl-1H-indazol-4-yl)-2-(1 methylpiperidin-4-yl)-8-(2,2,2-trifluoroethoxy)-6-vinylquinazolin-4-yl)-2,7-diazaspiro[3.5]nonan-2-yl)prop-2-en-1-one] registered an IC50 in series [1] of 2.7 nM. Further, in series [2], the Papp A→B at 120 min, 5 μM worked out at 0.51 ×10⁻⁶ cm/s; the Papp B→A at 120 min, 5 μM amounted to 7.18 ×10⁻⁶ cm/s; the efflux ratio at 120 min, 5 μM was determined as 14.2.
For `C=CC(=O)N1CC2(CCN(c3nc(C4CCN(C)CC4)nc4c(OC5CCC5)c(-c5c(C)ccc6[nH]ncc56)c(Cl)cc34)CC2)C1` [Example 33], the IC50 in series [3] stood at 42.9 nM; in series [4], 69.7 nM.
With `C=CC(=O)N1CC2(CCN(c3nc(C4CCN(C5CCN(C)CC5)CC4)nc4c(OCC(F)(F)F)c(-c5c(C)ccc6[nH]ncc56)c(C=C)cc34)CC2)C1` [Example 66, 1-(7-(7-(5-methyl-1H-indazol-4-yl)-2-(1′-methyl-[1,4-bipiperidine]-4-yl)-8-(2,2,2-trifluoroethoxy)-6-vinylquinazolin-4-yl)-2,7-diazspiro [3.5]nonan-2-yl) propyl-2-en-1-one], the IC50 was 8.5 nM in series [3] and 11.5 nM in series [4].
Taken in the same sequence, the figures for `C=CC(=O)N1CC2(CCN(c3nc(C4CCN(C5CCC(C#N)CC5)CC4)nc4c(OCC(F)(F)F)c(-c5c(C)ccc6[nH]ncc56)c(C=C)cc34)CC2)C1` (centres unmarked) [Example 67, 4-(4-(4-(2-acryloyl-2,7-diazazospiro [3.5]nonan-7-yl)-7-(5-methyl-1H-indazole-4-yl)-8-(2,2,2-trifluoroethoxy)-6-vinylquinazolin-2-yl)piperidin-1-yl) cyclohexane-1-methylnitrile] were 6.9 nM and 4.6 nM.
As for `C=CC(=O)N1CC2(CCN(c3nc(C4CN(C(=O)C5CC5)C4)nc4c(OCC(F)(F)F)c(-c5c(C)ccc6[nH]ncc56)c(CC)cc34)CC2)C1` [Example 45, 1-(7-(2-(1-(Cyclopropanecarbonyl)azacyclobutane-3-yl)-6-ethyl-7-(5-methyl-1H-indazol-4-yl)-8-(2,2,2-trifluoroethoxy)quinazolin-4-yl)-2,7-diazaspo [3.5]nonan-2-yl) propyl-2-en-1-one], the IC50 in series [3] stood at 778 nM; in series [4], 466 nM.
Taken in the same sequence, the figures for `C=CC(=O)N1CC2(CCN(c3nc(C4CCN(C)CC4)nc4c(OCCOC)c(-c5c(C)ccc6[nH]ncc56)c(C5CC5)cc34)CC2)C1` [Example 22, 1-(7-(6-cyclopropyl-8-(2-methoxyethoxy)-7-(5-methyl-1H-indazol-4-yl)-2-(1-methylpiperidin-4-yl)quinazolin-4-yl)-2,7-diazaspiro[3.5]nonan-2-yl)prop-2-en-1-one] were 21 nM and 49.6 nM.
